According to the supplement of paper PMC12592484:

How the values were obtained:
Experiment in all cases: drug sensitivity score (DSS2, normalised partial AUC of dose-response, 72 h CellTiter-Glo viability) (DSS (dimensionless)); higher = more sensitive (stronger growth inhibition / cytotoxicity); extreme values may be limits of the assay
CAF#4 = tested on: CAF#4 (primary prostate cancer-associated fibroblasts of iCAF-like type)
Procedure, shortened: (§1)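 In BREEZE, the drug sensitivity score was derived as a partial area under a fitted logistic dose–response curve over the log of that curve's upper asymptote; a higher score marks a more sensitive response. The input came from low-passage primary prostate cancer-associated fibroblasts, PF179T, WPMY-1, LNCaP and 22Rv1 cells, each seeded into 384-well plates with compounds pre-dispensed at five doses spanning a 10,000-fold range. CellTiter-Glo 2.0 luminescence after 72 h gave viability, which was normalized to vehicle and positive-control wells.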

PF179T = tested on: PF179T
Procedure, shortened: as §1

CAF#5 = tested on: CAF#5 (primary prostate cancer-associated fibroblasts of myCAF-like type)
Procedure, shortened: as §1

CAF#3 = tested on: CAF#3 (primary prostate cancer-associated fibroblasts of myCAF-like type)
Procedure, shortened: as §1

22Rv1 = tested on: 22Rv1
Procedure, shortened: as §1

WPMY-1 = tested on: WPMY-1
Procedure, shortened: as §1

LNCAP = tested on: LNCAP
Procedure, shortened: as §1

CAF#1 = tested on: CAF#1 (primary prostate cancer-associated fibroblasts of myCAF-like type)
Procedure, shortened: as §1

CAF#7 = tested on: CAF#7 (primary prostate cancer-associated fibroblasts of myCAF-like type)
Procedure, shortened: as §1

CAF#6 = tested on: CAF#6 (primary prostate cancer-associated fibroblasts of iCAF-like type)
Procedure, shortened: as §1

CAF#2 = tested on: CAF#2 (primary prostate cancer-associated fibroblasts of iCAF-like type)
Procedure, shortened: as §1

SMILES	drug sensitivity score (CAF#4)	drug sensitivity score (PF179T)	drug sensitivity score (CAF#5)	drug sensitivity score (CAF#3)	drug sensitivity score (22Rv1)	drug sensitivity score (WPMY-1)	drug sensitivity score (LNCAP)	drug sensitivity score (CAF#1)	drug sensitivity score (CAF#7)	drug sensitivity score (CAF#6)	drug sensitivity score (CAF#2)
CO[C@H]1CC[C@H](N2C(=O)CNc3ncc(-c4ccc(C(C)(C)O)nc4)nc32)CC1 [ATG-008] (tested concentration range 1-10000 nM)	6.5	6.3	7.4	5.5	8.9	6.2	7.6	5.7	3.1	2.8	7
CC[C@H](CC#N)OC(=O)N[C@@H](C)c1cccc(NC(=O)Nc2ccc(-c3cnco3)c(OC)c2)c1 [AVN944] (tested concentration range 1-10000 nM)	11.4	14.9	11.4	8.5	18.7	19	18.1	8.5	12.1	11.4	16.1
COc1cc(N2CCN(C)CC2)ccc1Nc1nccc(-c2cn(C)c3cnccc23)n1 [AZ191] (tested concentration range 1-10000 nM)	1.9	2.7	4.6	7.1	6.4	6.8	3.5	6	2.1	2.3	5.7
COc1cc(OC2CCN(C)CC2)ccc1Nc1ncc2c(n1)n(C1CCCC1)c(=O)n2C [AZ 3146] (tested concentration range 1-10000 nM)	0.8	2.3	0.7	3.1	7.5	4.8	4.6	1.8	2.8	1.6	4.3
COc1cc2ncnc(Nc3cccc(Cl)c3F)c2cc1OC(=O)N1CCN(C)C[C@H]1C [AZD3759] (tested concentration range 0.1-1000 nM)	0	0	0	0.4	0	0	0	0	0	0	0
Cc1[nH]nc(C(F)(F)F)c1Cc1sc2c(c1C(=O)N1C[C@](C)(O)CO1)c(=O)n(C)c(=O)n2C(C)C [AZD3965] (tested concentration range 0.1-1000 nM)	0	0	0	0	0	0	10.5	0.1	0	0	0.1
COc1cc(CCc2cc(NC(=O)c3ccc(N4CC(C)NC(C)C4)cc3)n[nH]2)cc(OC)c1 (stereo not drawn) [AZD4547] (tested concentration range 0.1-1000 nM)	0.6	3.5	1.3	6.7	0	0.2	0.3	1.1	13.1	5.8	2.5
CN(C)C(=O)c1ccc(S(=O)(=O)c2ccc(NC(=O)[C@@](C)(O)C(F)(F)F)c(Cl)c2)cc1 [AZD7545] (tested concentration range 1-10000 nM)	0	0	0	0.4	0.2	0.1	2.7	0	0	0	0
Cc1ncc(-c2ccnc(Nc3ccc(S(C)(=O)=O)cc3)n2)n1C(C)C [AZD-5438] (tested concentration range 1-10000 nM)	6.8	2.5	2.9	4	7.6	8.7	10.2	4.1	5.6	3	3.9
C[C@@H](Nc1cc(F)cc(F)c1)c1cc(C(=O)N(C)C)cc2c(=O)cc(N3CCOCC3)oc12 [AZD-8186] (tested concentration range 0.1-1000 nM)	2.8	6.3	2.8	4.2	1	1	12.7	2.9	3.9	2.2	3.4
CCN1CCN(Cc2ccc(Nc3ncc(F)c(-c4cc(F)c5nc(C)n(C(C)C)c5c4)n3)nc2)CC1 [Abemaciclib] (tested concentration range 0.2-2500 nM)	0.2	0.6	0	0	11	6	8.7	0	0	0.1	5.6
CN(C)Cc1c(C(=O)NCCOc2ccc(C(=O)NO)cc2)oc2ccccc12 [Abexinostat] (tested concentration range 1-10000 nM)	6.9	10.6	9.3	8.9	19.8	21.6	19.5	10	9	9.9	12.2
C[C@]12CC[C@H](O)CC1=CC[C@@H]1[C@@H]2CC[C@]2(C)C(c3cccnc3)=CC[C@@H]12 [Abiraterone] (tested concentration range 0.5-5000 nM)	0	0	1.5	0	0	0	1.3	0	0	0	0
